The numbers were not newly measured in patent publication US6951654B2, “Intravaginal drug delivery devices for the administration of an antimicrobial agent” (Galen (Chemicals) Limited, priority 2001, dated 2005), which cites them from elsewhere.

For the data set the following is noted: at 20° C.; Merck Index.

`Cc1ncc([N+](=O)[O-])n1CCO` [metronidazole, 2-methyl-5-nitro-1H-imidazole-1-ethanol]: the solubility in water is listed as 1 g per 100 ml.
